# Assays:
# [1] = tested on: Phytophthora infestans; type: in vivo; conditions: tomato plants, preventive spray (DMF/alkylaryl polyglycol ether), 500 ppm of active ingredient, evaluated 7 days after inoculation
# [2] = tested on: Plasmopara viticola; assay: Example J: Plasmopara test (grapevines)/preventive; type: in vivo; conditions: grapevine plants, preventive spray, 10 ppm of active ingredient, evaluated 6 days after inoculation
# Method: Example J: Plasmopara Test (Grapevines)/Preventive
# To produce a suitable preparation of active compound, 1 part by weight of active compound is mixed with the stated amounts of solvent and emulsifier, and the concentrate is diluted with water to the desired concentration.
# To test for preventive activity, young plants are sprayed with the preparation of active compound at the stated rate of application. After the spray coating has dried on, the plants are inoculated with an aqueous spore suspension of Plasmopara viticola and then remain for 1 day in an incubation cabinet at approximately 20° C. and a relative atmospheric humidity of 100%. The plant is subsequently placed for 4 days in a greenhouse at approximately 21° C. and a relative atmospheric humidity of approximately 90%. The plants are then misted and placed for 1 day in an incubation cabinet.
# The test is evaluated 6 days after the inoculation. 0% means an efficacy which corresponds to that of the untreated control, while an efficacy of 100% means that no disease is observed.
# [3] = pH 2.7
# Method: Measurement of IogP values was performed according EEC directive 79/831 Annex V.A8 by HPLC (High Performance Liquid Chromatography) on reversed phase columns with the following methods:
# Measurement of LC-MS was done at pH 2.7 with 0.1% formic acid in water and with acetonitrile (contains 0.1% formic acid) as eluent with a linear gradient from 10% acetonitrile to 95% acetonitrile.
# Calibration was done with not branched alkan2-ones (with 3 to 16 carbon atoms) with known logP-values (measurement of logP values using retention times with linear interpolation between successive alkanones). lambda-maX-values were determined using UV-spectra from 200 nm to 400 nm and the peak values of the chromatographic signals.
compound,measurement,setting,value
"CCCCCOC(=O)Nc1ccn(CO/N=C(/c2ccccc2)c2nc(=O)on2C)n1 [Example 7, pentyl {1-[({[(Z)-(2-methyl-5-oxo-2,5-dihydro-1,2,4-oxadiazol-3-yl)(phenyl)methylene]amino}oxy)methyl]-1H-pyrazol-3-yl}carbamate]",Eff. %,[1],100%
same,Eff. %,[2],85%
same,chromatographic logP,[3],3.06

# — US9743665B2, “Fungicidal 3-{phenyl[heterocyclylmethoxy)imino]methyl}-oxadiazolone derivatives” (BAYER CROPSCIENCE AKTIENGESELLSCHAFT, priority 2013, dated 2017)
